Source: patent US11717508B2, “Compounds, compositions, and methods for inhibiting bacterial growth” (priority 2016, dated 2023)
Where “and” joins values, the source holds several entries; their conditions need not be identical. Equal values may be shown once. Read-outs that look alike come from different tables or passages of the source.

Experiments:
DosRST regulon = assay type: cell-based; settings: 40 μM, 6 days, >2-fold, p<0.05
CDC1551(ΔdosR) mutant = assay type: cell-based; settings: for Counts per million (CPM) / Counts per million (CPM) DosR_HC103A1 / Counts per million (CPM) DosR_HC103A2: DosR mutant treated with HC103A; for Counts per million (CPM): replicates 1, 2; for DosR DMSO/DosR HC103A Fold change / log2 Fold change: DosR mutant; for Counts per million (CPM) DosR_HC103A1: replicate 1; for Counts per million (CPM) DosR_HC103A2: replicate 2
[1] = gene MT0169 Rv0l60c PE, HC103A vs DMSO
[2] = gene MT0206 (Rv0196), HC103A compared to DMSO, upregulated
[3] = gene MT0207 (Rv0197), HC103A compared to DMSO, upregulated
[4] = gene MT0273 Rv0260c, HC103A vs DMSO
[5] = gene MT0585 (Rv0559c), HC103A compared to DMSO, upregulated
[6] = gene MT0586 (Rv0560c), HC103A compared to DMSO, upregulated
[7] = gene MT0587 (Rv0561c), HC103A compared to DMSO, upregulated
[8] = gene MT0808 (Rv0784), HC103A compared to DMSO, upregulated
[9] = gene MT0846 Rv0824c desA1, HC103A vs DMSO
[10] = gene MT0908 Rv0885, HC103A vs DMSO
[11] = gene MT0909 Rv0886 fprB, HC103A vs DMSO
[12] = gene MT1214 Rv1177 fdxC, HC103A vs DMSO
[13] = gene MT1297 (Rv1258c), HC103A compared to DMSO, upregulated
[14] = gene MT1430 Rv1386 PE, HC103A vs DMSO
[15] = gene MT1608 (Rv1557, mmpL6), HC103A compared to DMSO, upregulated
[16] = gene MT1690 Rv1652 argC, HC103A vs DMSO
[17] = gene MT1692 Rv1654 argB, HC103A vs DMSO
[18] = gene MT1694 Rv1656 argF, HC103A vs DMSO
[19] = gene MT2466, HC103A compared to DMSO, upregulated
[20] = gene MT2467, HC103A compared to DMSO, upregulated
[21] = gene MT3110 (Rv3026c), HC103A compared to DMSO, upregulated
[22] = gene MT3134 Rv3049c, HC103A vs DMSO
[23] = gene MT3249 (Rv3160c), HC103A compared to DMSO, upregulated
[24] = gene MT3250 (Rv3161c), HC103A compared to DMSO, upregulated
[25] = gene MT3591 (Rv3487c, lipF), HC103A compared to DMSO, upregulated
[26] = gene MT3933 (Rv3825c, pks2), HC103A compared to DMSO, upregulated

O=C(Nc1cccc(O)c1)c1cccc(NC(=O)c2cccs2)c1 [HC103A, N-[3-[(3 hydroxyphenyl)carbamoyl]phenyl]thiophene-2-carboxamide]
genes downregulated by compound that are also downregulated in the CDC1551(ΔdosR) mutant (DosRST regulon): 76 genes
downregulated genes in CDC1551(ΔdosR) mutant treated with compound (CDC1551(ΔdosR) mutant; 40 μM, 6 days, >2-fold, p<0.05): 13 genes
Counts per million (CPM) (CDC1551(ΔdosR) mutant; gene MT0169 Rv0l60c PE): 32.4 CPM and 38.89 CPM
DosR DMSO/DosR HC103A Fold change (CDC1551(ΔdosR) mutant; [1]): 0.4759
log2 Fold change (CDC1551(ΔdosR) mutant; [1]): −1.071
Counts per million (CPM) DosR_HC103A1 (CDC1551(ΔdosR) mutant; gene MT0206 (Rv0196)): 286.4 CPM
Counts per million (CPM) DosR_HC103A2 (CDC1551(ΔdosR) mutant; gene MT0206 (Rv0196)): 309 CPM
DosR DMSO/DosR HC103A Fold change (CDC1551(ΔdosR) mutant; [2]): 6.59
log2 Fold change (CDC1551(ΔdosR) mutant; [2]): 2.72
Counts per million (CPM) DosR_HC103A1 (CDC1551(ΔdosR) mutant; gene MT0207 (Rv0197)): 509.4 CPM
Counts per million (CPM) DosR_HC103A2 (CDC1551(ΔdosR) mutant; gene MT0207 (Rv0197)): 528.3 CPM
DosR DMSO/DosR HC103A Fold change (CDC1551(ΔdosR) mutant; [3]): 4.134
log2 Fold change (CDC1551(ΔdosR) mutant; [3]): 2.047
Counts per million (CPM) (CDC1551(ΔdosR) mutant; gene MT0273 Rv0260c): 19.06 CPM and 17.95 CPM
DosR DMSO/DosR HC103A Fold change (CDC1551(ΔdosR) mutant; [4]): 0.4609
log2 Fold change (CDC1551(ΔdosR) mutant; [4]): −1.117
Counts per million (CPM) DosR_HC103A1 (CDC1551(ΔdosR) mutant; gene MT0585 (Rv0559c)): 4,246.95 CPM
Counts per million (CPM) DosR_HC103A2 (CDC1551(ΔdosR) mutant; gene MT0585 (Rv0559c)): 5,318.58 CPM
DosR DMSO/DosR HC103A Fold change (CDC1551(ΔdosR) mutant; [5]): 5.18
log2 Fold change (CDC1551(ΔdosR) mutant; [5]): 2.373
Counts per million (CPM) DosR_HC103A1 (CDC1551(ΔdosR) mutant; gene MT0586 (Rv0560c)): 8,065.19 CPM
DosR DMSO/DosR HC103A Fold change (CDC1551(ΔdosR) mutant; [6]): 384.9
log2 Fold change (CDC1551(ΔdosR) mutant; [6]): 8.588
Counts per million (CPM) DosR_HC103A1 (CDC1551(ΔdosR) mutant; gene MT0587 (Rv0561c)): 66.91 CPM
Counts per million (CPM) DosR_HC103A2 (CDC1551(ΔdosR) mutant; gene MT0587 (Rv0561c)): 74.86 CPM
DosR DMSO/DosR HC103A Fold change (CDC1551(ΔdosR) mutant; [7]): 2.044
log2 Fold change (CDC1551(ΔdosR) mutant; [7]): 1.031
Counts per million (CPM) DosR_HC103A1 (CDC1551(ΔdosR) mutant; gene MT0808 (Rv0784)): 242.1 CPM
Counts per million (CPM) DosR_HC103A2 (CDC1551(ΔdosR) mutant; gene MT0808 (Rv0784)): 193.9 CPM
DosR DMSO/DosR HC103A Fold change (CDC1551(ΔdosR) mutant; [8]): 2.445
log2 Fold change (CDC1551(ΔdosR) mutant; [8]): 1.29
Counts per million (CPM) (CDC1551(ΔdosR) mutant; gene MT0846 Rv0824c desA1): 2,264.39 CPM and 5,375.06 CPM
DosR DMSO/DosR HC103A Fold change (CDC1551(ΔdosR) mutant; [9]): 0.4703
log2 Fold change (CDC1551(ΔdosR) mutant; [9]): −1.088
Counts per million (CPM) (CDC1551(ΔdosR) mutant; gene MT0908 Rv0885): 2,165.30 CPM and 1,401.92 CPM
DosR DMSO/DosR HC103A Fold change (CDC1551(ΔdosR) mutant; [10]): 0.3709
log2 Fold change (CDC1551(ΔdosR) mutant; [10]): −1.431
Counts per million (CPM) (CDC1551(ΔdosR) mutant; gene MT0909 Rv0886 fprB): 412.7 CPM and 231.2 CPM
DosR DMSO/DosR HC103A Fold change (CDC1551(ΔdosR) mutant; [11]): 0.453
log2 Fold change (CDC1551(ΔdosR) mutant; [11]): −1.142
Counts per million (CPM) (CDC1551(ΔdosR) mutant; gene MT1214 Rv1177 fdxC): 704.9 CPM and 1,378.70 CPM
DosR DMSO/DosR HC103A Fold change (CDC1551(ΔdosR) mutant; [12]): 0.4926
log2 Fold change (CDC1551(ΔdosR) mutant; [12]): −1.021
Counts per million (CPM) DosR_HC103A1 (CDC1551(ΔdosR) mutant; gene MT1297 (Rv1258c)): 106.4 CPM
Counts per million (CPM) DosR_HC103A2 (CDC1551(ΔdosR) mutant; gene MT1297 (Rv1258c)): 137 CPM
DosR DMSO/DosR HC103A Fold change (CDC1551(ΔdosR) mutant; [13]): 2.269
log2 Fold change (CDC1551(ΔdosR) mutant; [13]): 1.182
Counts per million (CPM) (CDC1551(ΔdosR) mutant; gene MT1430 Rv1386 PE): 63.3 CPM and 54.49 CPM
DosR DMSO/DosR HC103A Fold change (CDC1551(ΔdosR) mutant; [14]): 0.4765
log2 Fold change (CDC1551(ΔdosR) mutant; [14]): −1.069
Counts per million (CPM) DosR_HC103A1 (CDC1551(ΔdosR) mutant; gene MT1608 (Rv1557, mmpL6)): 351.7 CPM
Counts per million (CPM) DosR_HC103A2 (CDC1551(ΔdosR) mutant; gene MT1608 (Rv1557, mmpL6)): 540 CPM
DosR DMSO/DosR HC103A Fold change (CDC1551(ΔdosR) mutant; [15]): 6.869
log2 Fold change (CDC1551(ΔdosR) mutant; [15]): 2.78
Counts per million (CPM) (CDC1551(ΔdosR) mutant; gene MT1690 Rv1652 argC): 130.6 CPM and 56.84 CPM
DosR DMSO/DosR HC103A Fold change (CDC1551(ΔdosR) mutant; [16]): 0.4979
log2 Fold change (CDC1551(ΔdosR) mutant; [16]): −1.006
Counts per million (CPM) (CDC1551(ΔdosR) mutant; gene MT1691): 81.47 CPM and 33.33 CPM
DosR DMSO/DosR HC103A Fold change (CDC1551(ΔdosR) mutant; gene MT1691, HC103A vs DMSO): 0.4846
log2 Fold change (CDC1551(ΔdosR) mutant; gene MT1691, HC103A vs DMSO): −1.045
Counts per million (CPM) (CDC1551(ΔdosR) mutant; gene MT1692 Rv1654 argB): 128.8 CPM and 55.27 CPM
DosR DMSO/DosR HC103A Fold change (CDC1551(ΔdosR) mutant; [17]): 0.4965
log2 Fold change (CDC1551(ΔdosR) mutant; [17]): −1.01
Counts per million (CPM) (CDC1551(ΔdosR) mutant; gene MT1694 Rv1656 argF): 79.75 CPM and 39.53 CPM
DosR DMSO/DosR HC103A Fold change (CDC1551(ΔdosR) mutant; [18]): 0.4259
log2 Fold change (CDC1551(ΔdosR) mutant; [18]): −1.231
Counts per million (CPM) DosR_HC103A1 (CDC1551(ΔdosR) mutant; gene MT2466): 356.4 CPM
Counts per million (CPM) DosR_HC103A2 (CDC1551(ΔdosR) mutant; gene MT2466): 182.6 CPM
DosR DMSO/DosR HC103A Fold change (CDC1551(ΔdosR) mutant; [19]): 2.643
log2 Fold change (CDC1551(ΔdosR) mutant; [19]): 1.402
Counts per million (CPM) DosR_HC103A1 (CDC1551(ΔdosR) mutant; gene MT2467): 57.69 CPM
Counts per million (CPM) DosR_HC103A2 (CDC1551(ΔdosR) mutant; gene MT2467): 12.39 CPM
DosR DMSO/DosR HC103A Fold change (CDC1551(ΔdosR) mutant; [20]): 2.468
log2 Fold change (CDC1551(ΔdosR) mutant; [20]): 1.303
Counts per million (CPM) DosR_HC103A1 (CDC1551(ΔdosR) mutant; gene MT3110 (Rv3026c)): 44.13 CPM
Counts per million (CPM) DosR_HC103A2 (CDC1551(ΔdosR) mutant; gene MT3110 (Rv3026c)): 30.13 CPM
DosR DMSO/DosR HC103A Fold change (CDC1551(ΔdosR) mutant; [21]): 2.016
log2 Fold change (CDC1551(ΔdosR) mutant; [21]): 1.012
Counts per million (CPM) (CDC1551(ΔdosR) mutant; gene MT3134 Rv3049c): 1,202.50 CPM and 892.7 CPM
DosR DMSO/DosR HC103A Fold change (CDC1551(ΔdosR) mutant; [22]): 0.4226
log2 Fold change (CDC1551(ΔdosR) mutant; [22]): −1.243
Counts per million (CPM) DosR_HC103A1 (CDC1551(ΔdosR) mutant; gene MT3249 (Rv3160c)): 172.6 CPM
DosR DMSO/DosR HC103A Fold change (CDC1551(ΔdosR) mutant; [23]): 2.261
log2 Fold change (CDC1551(ΔdosR) mutant; [23]): 1.177
Counts per million (CPM) DosR_HC103A1 (CDC1551(ΔdosR) mutant; gene MT3250 (Rv3161c)): 561.8 CPM
Counts per million (CPM) DosR_HC103A2 (CDC1551(ΔdosR) mutant; gene MT3250 (Rv3161c)): 555 CPM
DosR DMSO/DosR HC103A Fold change (CDC1551(ΔdosR) mutant; [24]): 2.364
log2 Fold change (CDC1551(ΔdosR) mutant; [24]): 1.241
Counts per million (CPM) (CDC1551(ΔdosR) mutant; gene MT3573.12): 281 CPM and 281.6 CPM
DosR DMSO/DosR HC103A Fold change (CDC1551(ΔdosR) mutant; gene MT3573.12, HC103A vs DMSO): 0.4221
log2 Fold change (CDC1551(ΔdosR) mutant; gene MT3573.12, HC103A vs DMSO): −1.244
Counts per million (CPM) DosR_HC103A1 (CDC1551(ΔdosR) mutant; gene MT3591 (Rv3487c, lipF)): 185.8 CPM
Counts per million (CPM) DosR_HC103A2 (CDC1551(ΔdosR) mutant; gene MT3591 (Rv3487c, lipF)): 63.03 CPM
DosR DMSO/DosR HC103A Fold change (CDC1551(ΔdosR) mutant; [25]): 2.033
log2 Fold change (CDC1551(ΔdosR) mutant; [25]): 1.023
Counts per million (CPM) DosR_HC103A1 (CDC1551(ΔdosR) mutant; gene MT3933 (Rv3825c, pks2)): 917.6 CPM
Counts per million (CPM) DosR_HC103A2 (CDC1551(ΔdosR) mutant; gene MT3933 (Rv3825c, pks2)): 561 CPM
DosR DMSO/DosR HC103A Fold change (CDC1551(ΔdosR) mutant; [26]): 2.341
log2 Fold change (CDC1551(ΔdosR) mutant; [26]): 1.227
